# Data from ChEMBL document CHEMBL1130673, “Hydroindenic-guanylhydrazones. Synthesis and evaluation as inotropic agents” (1998).
# Legend:
# [1] = species on record: Cavia porcellus; assay: Compound was measured for inotropic activity against isolated guinea pig atria at concentration 3 x 10e-4; Negative inotropic activity; type: functional
# [2] = species on record: Cavia porcellus; assay: Compound was measured for inotropic activity against isolated guinea pig atria at concentration 3 x 10e-4; type: functional
SMILES,Activity [1],Reduction [2] [%]
C[C@]12CCC(OC(c3ccccc3)(c3ccccc3)c3ccccc3)C[C@@]1(O)CC[C@@H]2CO (stereo not given in full),Negative inotropic activity,
COC(=O)/C=C/[C@H]1CC[C@]2(O)CC3(CC[C@]12C)SCCCS3,,85
C[C@]12CC/C(=N\N=C(N)N)C[C@@]1(O)CCC2/C=N/N=C(N)N (stereo not given in full),Negative inotropic activity,
C[C@]12CCC3(C[C@@]1(O)CCC2/C=N/N=C(N)N)OCCO3 (stereo not given in full),Negative inotropic activity,
CC(=O)OC[C@H]1CC[C@]2(O)CC3(CC[C@]12C)SCCCS3,,56
